{"source": "patent US6130053A", "about": "“Method for selecting compounds for inhibition of neoplastic lesions” (priority 1999, dated 2000)", "key": {"[1]": {"tested_on": "HT-29 cells", "test": "Growth inhibition of HT-29 cells", "assay_type": "cell-based, human"}, "[2]": {"tested_on": "cGMP PDE", "test": "cGMP PDE inhibition assay, enzyme purified from HT-29 cultured tumor cells", "assay_type": "biochemical, human", "description": "The mixture is incubated at 30° C. for 10 minutes with isolated PDE of this invention. Reactions are terminated, for example, by boiling the reaction mixture for 75 seconds. After cooling on ice, 100 μl of 0.5 mg/ml snake venom (O. Hannah venom available from Sigma) is added and incubated for 10 minutes at 30° C. This reaction is then terminated by the addition of an alcohol, e.g. 1 ml of 100% methanol. Assay samples are applied to 1 ml Dowex 1-X8 column; and washed with 1 ml of 100% methanol. The amount of radioactivity in the breakthrough and the wash from the column is combined and measured with a scintillation counter. The degree of phosphodiesterase inhibition is determined by calculating the amount of radioactivity in drug-treated reactions and comparing against a control sample (a reaction mixture lacking the tested compound but with drug solvent)."}, "[3]": {"target": "T1, COX-I (purified cyclooxygenase Type 1) (Ovis aries, UniProt P05979)", "T1 construct": "purified cyclooxygenase from ram seminal vesicles; from tissue; host or cells: ram seminal vesicles", "T1 sequence (P05979 25-600)": "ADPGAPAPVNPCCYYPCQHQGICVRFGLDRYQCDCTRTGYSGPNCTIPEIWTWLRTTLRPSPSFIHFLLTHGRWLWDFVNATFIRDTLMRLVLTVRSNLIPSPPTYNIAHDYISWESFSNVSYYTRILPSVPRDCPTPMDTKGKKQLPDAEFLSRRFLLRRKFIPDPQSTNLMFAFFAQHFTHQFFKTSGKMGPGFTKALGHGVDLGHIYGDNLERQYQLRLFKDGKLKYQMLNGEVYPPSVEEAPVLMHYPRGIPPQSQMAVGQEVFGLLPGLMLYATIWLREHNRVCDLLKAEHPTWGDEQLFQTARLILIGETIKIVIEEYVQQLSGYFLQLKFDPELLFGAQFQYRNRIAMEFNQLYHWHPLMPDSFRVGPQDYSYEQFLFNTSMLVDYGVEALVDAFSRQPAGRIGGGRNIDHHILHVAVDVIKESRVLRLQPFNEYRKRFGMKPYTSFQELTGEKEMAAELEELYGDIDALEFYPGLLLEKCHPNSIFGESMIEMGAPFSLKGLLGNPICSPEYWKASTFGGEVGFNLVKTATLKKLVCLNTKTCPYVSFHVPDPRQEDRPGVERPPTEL", "test": "COX inhibition assay, purified cyclooxygenase (Type 1)", "assay_type": "biochemical, ram", "details": "for COX-I inhibition: FIG. 5"}, "[4]": {"tested_on": "SW-480 colon adenocarcinoma cells", "test": "Apoptosis inducing activity, fold induction (fold stimulation, DNA fragmentation ELISA)", "details": "for fold induction at 100 µM: Homo sapiens, SW480, read-out: Fold induction of apoptosis at 100 μM, 100 μM"}, "[5]": {"target": "T2, PDE peak A (PDE5) (Homo sapiens, UniProt O76074)", "T2 construct": "approximately four hundred million SW480 cells at confluence were scraped; endogenous in cells; host or cells: SW480 human colon adenocarcinoma cells (DEAE-Trisacryl M fraction)", "test": "Inhibition of cGMP hydrolysis by PDE peak A from SW480 cells", "assay_type": "biochemical"}, "[6]": {"tested_on": "PDE peak B (novel cGMP-specific phosphodiesterase)", "test": "Inhibition of cGMP hydrolysis by PDE peak B (novel cGMP-specific PDE) from SW480 cells", "assay_type": "biochemical, human", "details": "for Km: absence of cAMP"}, "[7]": {"tested_on": "HT-29 cells (cAMP level)", "test": "cAMP production in cultured HT-29 cells (radioimmunoassay)", "assay_type": "cell-based, human", "details": "30 minutes"}, "[8]": {"tested_on": "PDE peak B (novel cGMP-specific phosphodiesterase)", "details": "cited from earlier work"}, "[9]": {"target": "native bovine PDE5", "details": "read-out: Kd (cGMP binding, native bovine PDE5); cited from earlier work"}, "[10]": {"tested_on": "premalignant lesions in mammary gland organ culture", "test": "Inhibition of premalignant lesions in mammary gland organ culture", "assay_type": "cell-based, mouse", "details": "FIG. 17", "description": "Test compounds identified by the above methods can be tested for antineoplastic activity by their ability to inhibit the incidence of preneoplastic lesions in a mammary gland organ culture system.\nFor example, female BALB/c mice can be treated with a combination of estradiol and progesterone daily, in order to prime the glands to be responsive to hormones in vitro. The animals are sacrificed and thoracic mammary glands are excised aseptically and incubated for ten days in growth media supplemented with insulin, prolactin, hydrocortisone, and aldosterone. DMBA (7,12-dimethylbenz(a)anthracene) is added to medium to induce the formation of premalignant lesions. Fully developed glands are then deprived of prolactin, hydrocortisone, and aldosterone, resulting in the regression of the glands but not the premalignant lesions.\nThe test compound is dissolved in DMSO and added to the culture media for the duration of the culture period. At the end of the culture period, the glands are fixed in 10% formalin, stained with alum carmine, and mounted on glass slides. […]\nThe extent of the area occupied by the mammary lesions can be quantitated by projecting an image of the gland onto a digitation pad. […] The space covered by each of the unregressed structures is also outlined on the digitization pad and quantitated by the computer."}, "[11]": {"tested_on": "[H][C@@]12COP(=O)(O)O[C@@]1([H])[C@@H](O)[C@H](n1cnc3c(=O)[nH]c(N)nc31)O2", "test": "purified protein, by the assay type", "details": "30.0 °C"}, "[12]": {"details": "Homo sapiens, HT-29; read-out: Growth % Inhibition at 100 μM"}}, "note": "“Also recorded” adds a separate entry of the source. Where two headings read alike, the source gives them in different places."}
{"compound": "CCN(CC)CCSC12CC(=O)OC1(C)/C(=C/c1ccc(S(C)(=O)=O)cc1)c1ccc(F)cc12", "note": "(racemic) [A, rac-threo-(E)-1-(N,N'-diethylaminoethanethio)-1-(butan-1',4'-olido)-[3',4':1,2]-6-fluoro-2-methyl-3-(p-methylsulfonylbenzylidene)-indan]", "values": [{"measurement": "inhibition at 100 µM", "setting": "[1]; [12]", "value": 68, "unit": "%"}, {"measurement": "cGMP PDE % Inhibition at 10 μM", "setting": "[2]", "value": "< 25", "unit": "%"}, {"measurement": "inhibition at 100 µM", "setting": "[3]", "value": "< 25", "unit": "%"}, {"measurement": "fold induction at 100 µM", "setting": "[4]", "value": "< 2"}]}
{"compound": "CC(=O)NC(CSC12CC(=O)OC1(C)/C(=C/c1ccc(S(C)(=O)=O)cc1)c1ccc(F)cc12)C(=O)O", "note": "(racemic) [D, rac-(E)-1-(butan-1',4'-olido)-[3',4':1,2]-6-fluoro-2-methyl-3-(p-methylsulfonylbenzylidene)-1S-indanyl-N-acetylcysteine]", "values": [{"measurement": "inhibition at 100 µM", "setting": "[1]; [12]", "value": 78, "unit": "%"}, {"measurement": "inhibition at 100 µM", "setting": "[3]", "value": "< 25", "unit": "%"}]}
{"compound": "CCCCCC[C@H]([C@H](C)O)n1cnc2c(N)ncnc21", "note": "(relative stereo) [EHNA]", "values": [{"measurement": "IC50", "setting": "[5]", "value": "> 100", "unit": "µM"}, {"measurement": "IC50", "setting": "[6]; cGMP hydrolysis, 0.25 μM 3H-cGMP", "value": 3.7, "unit": "µM"}, {"measurement": "fold induction at 100 µM", "setting": "[4]", "value": "< 2"}]}
{"compound": "COc1cc(/C=C2/C(C)=C(CC(=O)O)c3cc(F)ccc32)cc(OC)c1OC", "note": "[B, (Z)-5-Fluoro-2-methyl-1-(3,4,5-trimethoxybenzylidene)-3-acetic acid]", "values": [{"measurement": "cGMP PDE % Inhibition at 10 μM", "setting": "[2]", "value": "< 25", "unit": "%"}, {"measurement": "cGMP PDE inhibition at 20 μM", "setting": "[2]; 20 μM, FIG. 8", "value": "greater than 50%"}, {"measurement": "COX-I inhibition", "setting": "[3]", "value": "neither test compound B and E significantly inhibit COX-I"}, {"measurement": "fold induction at 100 µM", "setting": "[4]", "value": 3.4}]}
{"compound": "CC1=C(CC(=O)O)c2cc(F)ccc2/C1=C\\c1ccc(Cl)cc1", "note": "[Compound C, (Z)-5-Fluoro-2-methyl-1-(p-chlorobenzylidene)-3-acetic acid]", "values": [{"measurement": "inhibition at 100 µM", "setting": "[1]; [12]", "value": 80, "unit": "%"}, {"measurement": "cGMP PDE % Inhibition at 10 μM", "setting": "[2]", "value": "< 25", "unit": "%"}]}
{"compound": "O=C(O)C1CCN(c2nc(NCc3ccc4c(c3)OCO4)c3cc(Cl)ccc3n2)CC1", "note": "[Compound E4021]", "values": [{"measurement": "inhibition at 100 µM", "setting": "[1]; Homo sapiens, HT-29, read-out: Growth % Inhibition at 100 μM", "value": "< 50", "unit": "%"}]}
{"compound": "COc1cc(/C=C2/C(C)=C(CC(=O)NCc3ccccc3)c3cc(F)ccc32)cc(OC)c1OC", "note": "[Compound E, (Z)-5-Fluoro-2-methyl-1-(3,4,5-trimethoxybenzylidene)-3-indenylacetamide, N-benzyl]", "values": [{"measurement": "mode of inhibition of peak A", "setting": "[5]", "value": "competitively inhibited"}, {"measurement": "mode of inhibition of peak B", "setting": "[6]", "value": "competitively inhibited"}, {"measurement": "COX-I inhibition", "setting": "[3]", "value": "neither test compound B and E significantly inhibit COX-I"}, {"measurement": "apoptosis-inducing or growth-inhibiting properties", "setting": "[4]; neoplastic cells", "value": "precisely the opposite"}]}
{"compound": "CC1(C)C(=O)Nc2ccc(C3=NNC(=O)CC3)cc21", "note": "[Indolidan]", "values": [{"measurement": "sensitivity of peak B / novel PDE to inhibitor", "setting": "[6]", "value": "insensitive"}]}
{"compound": "Clc1cccc(Nc2nnc(-c3ccccc3)c3ccccc23)c1", "note": "[MY5445, 1-(3-chloroanilino)-4-phenyphthalazine]", "values": [{"measurement": "inhibition at 100 µM", "setting": "[3]", "value": 94, "unit": "%"}]}
{"compound": "COc1ccc(C2CNC(=O)C2)cc1OC1CCCC1", "note": "(stereo not shown) [Rolipram]", "values": [{"measurement": "sensitivity of peak B / novel PDE to inhibitor", "setting": "[6]", "value": "insensitive"}, {"measurement": "effect on cAMP level", "setting": "[7]", "value": "increased cAMP"}]}
{"compound": "CCCc1nn(C)c2c(=O)[nH]c(-c3cc(S(=O)(=O)N4CCN(C)CC4)ccc3OCC)nc12", "note": "[Sildenafil]", "values": [{"measurement": "inhibition of peak A activity", "setting": "[5]", "value": "inhibited activity of peak A"}, {"measurement": "effect on new cGMP-specific PDE (words, '375 application)", "setting": "[8]", "value": "little relative effect"}]}
{"compound": "CCOC(=O)C1=C[C@]2(CC)CCCN3CCc4c(n1c1ccccc41)[C@@H]32", "note": "[Vinpocetine]", "values": [{"measurement": "sensitivity of peak B / novel PDE to inhibitor", "setting": "[6]", "value": "insensitive"}]}
{"compound": "CCCOc1ccccc1-c1nc2nn[nH]c2c(=O)[nH]1", "note": "[Zaprinast]", "values": [{"measurement": "sensitivity of peak B / novel PDE to inhibitor", "setting": "[6]", "value": "reduced sensitivity to inhibition; also recorded: zaprinast-insensitive"}]}
{"compound": "Nc1nc2c(ncn2[C@@H]2O[C@@H]3COP(=O)(O)O[C@H]3[C@H]2O)c(=O)[nH]1", "note": "[cGMP, cyclic guanosine 3',5'-monophosphate]", "values": [{"measurement": "Km", "setting": "[6]; read-out: Km of peak B for cGMP (increasing slope)", "value": "< 1", "unit": "µM"}, {"measurement": "Km", "setting": "[6]; read-out: apparent Km of peak B for cGMP (first, decreasing part of Eadie-Hofstee plot)", "value": 8.4, "unit": "µM"}, {"measurement": "Kd", "setting": "[9]", "value": 1.3, "unit": "µM"}]}
{"compound": "CC1=C(CC(=O)O)c2cc(F)ccc2/C1=C\\c1ccc([S+](C)[O-])cc1", "note": "(stereo not shown) [sulindac]", "values": [{"measurement": "inhibition of premalignant lesions", "setting": "[10]", "value": "effectively inhibit the formation of premalignant lesions"}]}
{"compound": "PDE peak A (PDE5) (Homo sapiens)", "values": [{"measurement": "Km", "setting": "[11]", "value": 1.07, "unit": "µM"}, {"measurement": "Vmax", "setting": "[11]", "value": 0.16, "unit": "nmol/min/mg"}]}
